# According to US20130143929A1, “FUNGICIDAL IMIDAZOLES” (EI DU PONT DE NEMOURS AND COMPANY, priority 2010, published 2013):
# Marks after values point to notes of the source that are not given here.
# Legend:
# Type in all cases: in vivo
# [1] = tested on: Puccinia recondite f. sp. tritici (the causal agent of wheat leaf rust); assay: Test A: wheat leaf rust, preventive spray on wheat seedlings, visual disease rating; conditions: wheat leaf rust, preventive spray on wheat seedlings
# In short: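 Wheat seedlings were sprayed to run-off with compound suspended in acetone/water containing 250 ppm Trem 014 (200 ppm ≈ 800 g/ha; some at 40 ppm). Puccinia recondite spores were inoculated the next day. Plants were held 24 h saturated at 20° C, then 7 days at 20° C, and disease control was rated visually on a 0–100 scale against controls.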
# [2] = tested on: Blumeria graminis f. sp. tritici (also known as Erysiphe graminis f. sp. tritici, the causal agent of wheat powdery mildew); assay: Test D: wheat powdery mildew, preventive spray on wheat seedlings, visual disease rating; conditions: wheat powdery mildew, preventive spray on wheat seedlings
# In short: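 Compound suspended in acetone/water (50/50) with 250 ppm Trem 014 and sprayed to run-off on wheat seedlings (200 ppm ≈ 800 g/ha), then inoculated next day with spore dust. Disease rated visually after 8 days at 20 °C as % control relative to untreated plants (0-100).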
# [3] = tested on: Septoria tritici (the causal agent of wheat leaf blotch); assay: Test B: wheat leaf blotch, preventive spray on wheat seedlings, visual disease rating; conditions: wheat leaf blotch, preventive spray on wheat seedlings
# In short: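 Wheat seedlings sprayed to run-off with compound suspension (acetone/water with 250 ppm Trem 014; 200 ppm ≈ 800 g/ha, some at 40 ppm), inoculated next day with Septoria tritici spores. 48 h saturated humidity at 24 °C, then 19 days at 20 °C; visual rating, 100 = full control.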
# [4] = tested on: Botrytis cinerea (the causal agent of tomato Botrytis); assay: Test C: tomato Botrytis, preventive spray on tomato seedlings, visual disease rating; conditions: tomato Botrytis, preventive spray on tomato seedlings
# In short: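 Test suspension (acetone/water with 250 ppm Trem 014; 200 ppm equivalent to 800 g/ha) sprayed to run-off on tomato seedlings; B. cinerea spores inoculated next day. After 48 h saturated humidity at 20° C then 3 days at 24° C, disease rated visually as % control relative to untreated controls (0–100).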
# [5] = no asterisk (standard test suspension concentration, not 40 ppm)
# [6] = asterisk: 40 ppm test suspension
structure (smiles),measurement,setting,value
COc1ccc(C(O)c2cnc(CCl)n2-c2c(F)cc(F)cc2Br)c(Cl)c1 (stereo not shown) [compound 352],"Test A rating (100 = 100% disease control, 0 = no disease control relative to the controls)",[1]; [5],100%
same,"Test D rating (100 = 100% disease control, 0 = no disease control relative to the controls)",[2]; [5],95%
same,"Test B rating (100 = 100% disease control, 0 = no disease control relative to the controls)",[3]; [5],100%
same,"Test C rating (100 = 100% disease control, 0 = no disease control relative to the controls)",[4]; [5],99%
Cc1nc(Br)c(C(O)c2c(F)cc(F)cc2F)n1-c1ccc(Cl)cc1 (stereo not shown) [compound 353],"Test A rating (100 = 100% disease control, 0 = no disease control relative to the controls)",[1]; [5],9%
same,"Test D rating (100 = 100% disease control, 0 = no disease control relative to the controls)",[2]; [5],0%
same,"Test B rating (100 = 100% disease control, 0 = no disease control relative to the controls)",[3]; [5],44%
same,"Test C rating (100 = 100% disease control, 0 = no disease control relative to the controls)",[4]; [5],28%
COc1ccc(C(O)c2c(Br)ncn2-c2ccc(F)cc2Cl)c(Cl)c1 (stereo not shown) [compound 354],"Test A rating (100 = 100% disease control, 0 = no disease control relative to the controls)",[1]; [6],94* %
same,"Test D rating (100 = 100% disease control, 0 = no disease control relative to the controls)",[2]; [6],0* %
same,"Test B rating (100 = 100% disease control, 0 = no disease control relative to the controls)",[3]; [6],18* %
same,"Test C rating (100 = 100% disease control, 0 = no disease control relative to the controls)",[4]; [6],0* %
COc1ccc(C(O)c2c(Br)nc(Br)n2-c2ccc(F)cc2Cl)c(Cl)c1 (stereo not shown) [compound 355],"Test A rating (100 = 100% disease control, 0 = no disease control relative to the controls)",[1]; [6],100* %
same,"Test D rating (100 = 100% disease control, 0 = no disease control relative to the controls)",[2]; [6],97* %
same,"Test B rating (100 = 100% disease control, 0 = no disease control relative to the controls)",[3]; [6],100* %
same,"Test C rating (100 = 100% disease control, 0 = no disease control relative to the controls)",[4]; [6],100* %
COc1ccc(C(O)c2c(Cl)ncn2-c2ccc(F)cc2Cl)c(Cl)c1 (stereo not shown) [compound 356],"Test A rating (100 = 100% disease control, 0 = no disease control relative to the controls)",[1]; [6],95* %
same,"Test D rating (100 = 100% disease control, 0 = no disease control relative to the controls)",[2]; [6],0* %
same,"Test B rating (100 = 100% disease control, 0 = no disease control relative to the controls)",[3]; [6],19* %
same,"Test C rating (100 = 100% disease control, 0 = no disease control relative to the controls)",[4]; [6],0* %
COc1ccc(C(O)c2c(Cl)nc(Br)n2-c2ccc(F)cc2Cl)c(Cl)c1 (stereo not shown) [compound 357],"Test A rating (100 = 100% disease control, 0 = no disease control relative to the controls)",[1]; [6],100* %
same,"Test D rating (100 = 100% disease control, 0 = no disease control relative to the controls)",[2]; [6],98* %
same,"Test B rating (100 = 100% disease control, 0 = no disease control relative to the controls)",[3]; [6],100* %
same,"Test C rating (100 = 100% disease control, 0 = no disease control relative to the controls)",[4]; [6],99* %
COc1ccc(C(O)c2c(Br)nc(Cl)n2-c2ccc(F)cc2Cl)c(Cl)c1 (stereo not shown) [compound 358],"Test A rating (100 = 100% disease control, 0 = no disease control relative to the controls)",[1]; [6],100* %
same,"Test D rating (100 = 100% disease control, 0 = no disease control relative to the controls)",[2]; [6],99* %
same,"Test B rating (100 = 100% disease control, 0 = no disease control relative to the controls)",[3]; [6],100* %
same,"Test C rating (100 = 100% disease control, 0 = no disease control relative to the controls)",[4]; [6],100* %
Cc1ncc(C(O)c2c(F)cc(Cl)cc2F)n1-c1ccc(F)cc1Cl (stereo not shown) [compound 359],"Test A rating (100 = 100% disease control, 0 = no disease control relative to the controls)",[1]; [5],68%
same,"Test D rating (100 = 100% disease control, 0 = no disease control relative to the controls)",[2]; [5],0%
same,"Test B rating (100 = 100% disease control, 0 = no disease control relative to the controls)",[3]; [5],0%
same,"Test C rating (100 = 100% disease control, 0 = no disease control relative to the controls)",[4]; [5],0%
Cc1ncc(C(O)c2ccc(F)cc2Cl)n1-c1ccc(F)cc1F (stereo not shown) [compound 360],"Test A rating (100 = 100% disease control, 0 = no disease control relative to the controls)",[1]; [5],99%
same,"Test D rating (100 = 100% disease control, 0 = no disease control relative to the controls)",[2]; [5],0%
same,"Test B rating (100 = 100% disease control, 0 = no disease control relative to the controls)",[3]; [5],93%
same,"Test C rating (100 = 100% disease control, 0 = no disease control relative to the controls)",[4]; [5],67%
Cc1ncc(C(O)c2c(F)cc(F)cc2F)n1-c1ccc(Cl)cc1Cl (stereo not shown) [compound 361],"Test A rating (100 = 100% disease control, 0 = no disease control relative to the controls)",[1]; [5],95%
same,"Test D rating (100 = 100% disease control, 0 = no disease control relative to the controls)",[2]; [5],0%
same,"Test B rating (100 = 100% disease control, 0 = no disease control relative to the controls)",[3]; [5],15%
same,"Test C rating (100 = 100% disease control, 0 = no disease control relative to the controls)",[4]; [5],9%
Cc1nc(Br)c(C(O)c2c(F)cc(Cl)cc2F)n1-c1ccc(F)cc1Cl (stereo not shown) [compound 362],"Test A rating (100 = 100% disease control, 0 = no disease control relative to the controls)",[1]; [5],99%
same,"Test D rating (100 = 100% disease control, 0 = no disease control relative to the controls)",[2]; [5],0%
same,"Test B rating (100 = 100% disease control, 0 = no disease control relative to the controls)",[3]; [5],85%
same,"Test C rating (100 = 100% disease control, 0 = no disease control relative to the controls)",[4]; [5],0%
COc1cc(F)c(C(O)c2cnc(C)n2-c2ccc(F)cc2Cl)c(F)c1 (stereo not shown) [compound 363],"Test A rating (100 = 100% disease control, 0 = no disease control relative to the controls)",[1]; [5],98%
same,"Test D rating (100 = 100% disease control, 0 = no disease control relative to the controls)",[2]; [5],0%
same,"Test B rating (100 = 100% disease control, 0 = no disease control relative to the controls)",[3]; [5],74%
same,"Test C rating (100 = 100% disease control, 0 = no disease control relative to the controls)",[4]; [5],9%
COc1cc(F)c(C(O)c2c(Br)nc(C)n2-c2ccc(F)cc2Cl)c(F)c1 (stereo not shown) [compound 364],"Test A rating (100 = 100% disease control, 0 = no disease control relative to the controls)",[1]; [5],100%
same,"Test D rating (100 = 100% disease control, 0 = no disease control relative to the controls)",[2]; [5],95%
same,"Test B rating (100 = 100% disease control, 0 = no disease control relative to the controls)",[3]; [5],100%
same,"Test C rating (100 = 100% disease control, 0 = no disease control relative to the controls)",[4]; [5],100%
